Experimental data taken from US20260297060A1, “COMPOUNDS FOR THE DEGRADATION OF MUTANT BRAF” (C4 THERAPEUTICS, INC., priority 2023, published 2026).

System: A375-NRAS^Q61K cells
Assay: CTGlo Cell Viability Assay, A375-NRAS^Q61K (A375.11) cells, 96 hours
Type: cell-based, human
Conditions: A375.11 (A375-NRAS^Q61K) cells
Summary of the method: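 Viability as CellTiter-Glo ATP luminescence after 96 h compound exposure at 37 °C; A375.11 (BRAF V600E/NRAS Q61K) cells at 250/well, top final concentration 10 μM in half-log steps. Signal was background-corrected and set relative to DMSO controls. A 4-parameter logistic fit gave GI50 (50% crossing) and Emax.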

[1] = Homo sapiens, 96 h, lowest % viability achieved

SMILES | GI50 (Homo sapiens, 96 h) | Emax [1] | GI50 | CTGlo A375.11 96 hours Emax (lowest % viability achieved)
CO[C@H]1CCN(S(=O)(=O)Nc2ccc(F)c(Oc3ccc4ncn([C@H]5COC6(CCN(C7CCC(c8cc9c(cc8F)c(N8CCC(=O)NC8=O)nn9C)CC7)CC6)C5)c(=O)c4c3)c2C#N)C1 (single isomer, unassigned) [Compound 115] | < 1000 nM | < 50% |  | 
CCN(C)S(=O)(=O)Nc1ccc(F)c(Nc2ccc3ncn([C@H]4COC5(CCN(C6CCC(c7cc8c(cc7F)c(N7CCC(=O)NC7=O)nn8C)CC6)CC5)C4)c(=O)c3c2)c1C#N (single isomer, unassigned) [Compound 64] |  | 50 to 90% | 1000 to 10000 nM | 
CCN(C)S(=O)(=O)Nc1ccc(F)c(Oc2ccc3ncc([C@H]4COC5(CCN(C6CCC(c7ccc(NC8CCC(=O)NC8=O)cc7F)CC6)CC5)C4)nc3c2)c1C#N (single isomer, unassigned) [Compound 58] | < 1000 nM | < 50% |  | 
CCN(C)S(=O)(=O)Nc1ccc(F)c(Oc2ccc3ncn(C4CC5(CCN(C6CC7(CCN(c8cc9c(cc8F)c(N8CCC(=O)NC8=O)nn9C)CC7)C6)CC5)C4)c(=O)c3c2)c1C#N (stereo not drawn) [Compound 198, 6-[2-cyano-3-[[ethyl(methyl)sulfamoyl]amino]-6-fluoro-phenoxy]-3-[7-[7-[3-(2,4-dioxohexahydropyrimidin-1-yl)-5-fluoro-1-methyl-indazol-6-yl]-7-azaspiro[3.5]nonan-2-yl]-7-azaspiro[3.5]nonan-2-yl]-4-oxo-quinazoline] | 1000 to 10000 nM | < 50% |  | 
CCN(C)S(=O)(=O)Nc1ccc(F)c(Oc2ccc3ncn([C@H]4COC5(CCN(C6CCC(c7ccc(NC8CCC(=O)NC8=O)cc7F)CC6)CC5)C4)c(=O)c3c2F)c1C#N (single isomer, unassigned) [Compound 50] | < 1000 nM | < 50% |  | 
Cn1nc(N2CCC(=O)NC2=O)c2cc(F)c(N3CC4(CC(N5CCC6(CC5)C[C@@H](n5cnc7ccc(Oc8c(F)ccc(NS(=O)(=O)N9CC%10(CCC%10)C9)c8C#N)cc7c5=O)CO6)C4)C3)cc21 [Compound 254, N-[2-cyano-3-[3-[(3R)-8-[2-[3-(2,4-dioxohexahydropyrimidin-1-yl)-5-fluoro-1-methyl-indazol-6-yl]-2-azaspiro[3.3]heptan-6-yl]-1-oxa-8-azaspiro[4.5]decan-3-yl]-4-oxo-quinazolin-6-yl]oxy-4-fluoro-phenyl]-2-azaspiro[3.3]heptane-2-sulfonamide] | < 1000 nM | < 50% |  | 
CCN(C)S(=O)(=O)Nc1ccc(F)c(Oc2ccc3ncn(C4CC5(CCN(C6CCC(c7cc8c(cc7F)c(N7CCC(=O)NC7=O)nn8C)CC6F)CC5)C4)c(=O)c3c2)c1C#N (single isomer, unassigned) [Compound 86] |  |  | < 1000 nM | *** (<=50%)
CCN(C)S(=O)(=O)Nc1ccc(F)c(Oc2ccc3ncc(OC4CC5(CCN(C6CCC(c7cc8c(cc7F)c(N7CCC(=O)NC7=O)nn8C)CC6)CC5)C4)nc3c2)c1C#N (single isomer, unassigned) [Compound 218, 7-[2-cyano-3-[[ethyl(methyl)sulfamoyl]amino]-6-fluoro-phenoxy]-2-[[7-[4-[3-(2,4-dioxohexahydropyrimidin-1-yl)-5-fluoro-1-methyl-indazol-6-yl]cyclohexyl]-7-azaspiro[3.5]nonan-2-yl]oxy]quinoxaline] |  | 50 to 90% | < 1000 nM | 
Cn1nc(N2CCC(=O)NC2=O)c2cc(F)c(N3CC4(CC(N5CCC6(CC5)C[C@@H](n5cnc7ccc(Oc8c(F)ccc(NS(=O)(=O)N9CC[C@@H](F)C9)c8C#N)cc7c5=O)CO6)C4)C3)cc21 [Compound 133, (3R)-N-[2-cyano-3-[3-[(3R)-8-[2-[3-(2,4-dioxohexahydropyrimidin-1-yl)-5-fluoro-1-methyl-indazol-6-yl]-2-azaspiro[3.3]heptan-6-yl]-1-oxa-8-azaspiro[4.5]decan-3-yl]-4-oxo-quinazolin-6-yl]oxy-4-fluoro-phenyl]-3-fluoro-pyrrolidine-1-sulfonamide] | 1000 to 10000 nM | < 50% |  | 
CCN(C)S(=O)(=O)Nc1ccc(F)c(Oc2ccc3ncn([C@H]4COC5(CCN(C6CCC(c7ccc(N[C@@H]8CCC(=O)NC8=O)cc7F)CC6)CC5)C4)c(=O)c3c2)c1C#N (single isomer, unassigned) [Compound 4] | < 1000 nM | < 50% |  | 
CO[C@@H]1CCN(S(=O)(=O)Nc2ccc(F)c(Oc3ccc4ncn([C@H]5COC6(CCN(C7CCC(c8cc9c(cc8F)c(N8CCC(=O)NC8=O)nn9C)CC7)CC6)C5)c(=O)c4c3)c2C#N)C1 (single isomer, unassigned) [Compound 100] | < 1000 nM | < 50% |  | 
Cn1nc(N2CCC(=O)NC2=O)c2cc(F)c(C3CCC(N4CCC5(CC4)CC(n4cnc6ccc(Oc7c(F)ccc(NS(=O)(=O)C8CCCC8)c7C#N)cc6c4=O)C5)CC3)cc21 (single isomer, unassigned) [Compound 93, N-[2-cyano-3-[3-[7-[4-[3-(2,4-dioxohexahydropyrimidin-1-yl)-5-fluoro-1-methyl-indazol-6-yl]cyclohexyl]-7-azaspiro[3.5]nonan-2-yl]-4-oxo-quinazolin-6-yl]oxy-4-fluoro-phenyl]cyclopentanesulfonamide] | < 1000 nM | < 50% |  | 
CN(CCO)S(=O)(=O)Nc1ccc(F)c(Oc2ccc3ncn(C4CC5(CCN(C6CCC(c7cc8c(cc7F)c(N7CCC(=O)NC7=O)nn8C)CC6)CC5)C4)c(=O)c3c2)c1C#N (single isomer, unassigned) [Compound 81, 6-[2-cyano-6-fluoro-3-[[2-hydroxyethyl(methyl)sulfamoyl]amino]phenoxy]-3-[7-[4-[3-(2,4-dioxohexahydropyrimidin-1-yl)-5-fluoro-1-methyl-indazol-6-yl]cyclohexyl]-7-azaspiro[3.5]nonan-2-yl]-4-oxo-quinazoline] | 1000 to 10000 nM | 50 to 90% |  | 
CCN(C)S(=O)(=O)Nc1ccc(F)c(Oc2ccc3ncn([C@H]4COC5(CCC(N6CCC(c7cc8c(cc7F)c(N7CCC(=O)NC7=O)nn8C)C(F)(F)C6)CC5)C4)c(=O)c3c2)c1C#N (single isomer, unassigned) [Compound 38] | < 1000 nM | < 50% |  | 
CCN(C)S(=O)(=O)Nc1ccc(F)c(Oc2ccc3ncn([C@H]4COC5(CCN(C6CC(c7ccc(NC8CCC(=O)NC8=O)cc7F)C6)CC5)C4)c(=O)c3c2)c1C#N (single isomer, unassigned) [Compound 62] | < 1000 nM | < 50% |  | 
